For 6 compounds, Activity, Emax and EC50 results are on record in ChEMBL document CHEMBL5550214, “Expanding Structure-Activity Relationships of Human Urotensin II Peptide Analogues: A Proposed Key Role of the N-Terminal Region for Novel Urotensin II Receptor Modulators” (J Med Chem, 2024).

In assay [1] the target is T1, Urotensin-2 receptor (Homo sapiens) (UniProt Q9UKP6).
T1 sequence (whole entry): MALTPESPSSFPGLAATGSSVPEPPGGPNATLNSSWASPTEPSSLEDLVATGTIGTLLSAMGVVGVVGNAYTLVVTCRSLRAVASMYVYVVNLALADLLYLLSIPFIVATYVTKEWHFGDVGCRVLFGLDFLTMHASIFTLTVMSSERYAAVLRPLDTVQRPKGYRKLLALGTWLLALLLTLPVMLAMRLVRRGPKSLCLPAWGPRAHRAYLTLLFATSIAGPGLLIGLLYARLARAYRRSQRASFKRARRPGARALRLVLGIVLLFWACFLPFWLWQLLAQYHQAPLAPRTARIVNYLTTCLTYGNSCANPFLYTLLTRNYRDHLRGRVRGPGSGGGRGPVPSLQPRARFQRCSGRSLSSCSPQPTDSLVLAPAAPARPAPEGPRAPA
The assay can be described thus: Modulation of human UTR stably expressed in HEK293 cells assessed as increase in Ca2+ level at 0.1 to 100 nM by Fura 2-AM dye based calcium mobilization assay. The class given is functional, cell-based. Particulars: dose 0.1-100 nM. On the technique in general: Calcium assays in cells follow changes in intracellular calcium, usually with a dye or a luminescent sensor.

The subject of assay [2] is Aortic ring. Nature of the assay: Induction of contraction in Albino Wistar rat aortic ring at 1 to 30 nM. It counts as functional, tissue-based. To be noted: Aorta, dose 1-30 nM.
The target in assay [3] is T1, Urotensin-2 receptor (Homo sapiens). Nature of the assay: Modulation of human UTR stably expressed in HEK293 cells assessed as increase in Ca2+ level at 0.1 nM by Fura 2-AM dye based calcium mobilization assay. It counts as functional, cell-based. Particulars: filed as modulator.
Assay [4] relates to Aortic ring. Nature of the assay: Induction of contraction in Albino Wistar rat aortic ring at 1 to 30 nM relative to control. It counts as functional, Aorta. Particulars: dose 1-30 nM.
Assay [5] has as its target T1, Urotensin-2 receptor (Homo sapiens). The assay can be described thus: Modulation of human UTR stably expressed in HEK293 cells assessed as increase in Ca2+ level at 0.01 to 1 nM by Fura 2-AM dye based calcium mobilization assay. It counts as functional, cell-based. Particulars: filed as modulator, dose 0.01-1 nM.
The target in assay [6] is T2, Urotensin-2 receptor (Homo sapiens, UniProt Q9UKP6).
T2 sequence (Q9UKP6 whole entry): T1 sequence (whole entry)
Nature of the assay: Modulation of human UTR stably expressed in HEK293 cells assessed as increase in Ca2+ level by Fura 2-AM dye based calcium mobilization assay. The class given is functional, cell-based.

Calls of active or inactive are those of the source. The calls are words filed in the database; no cut-off is given here. Where a SMILES comes first, the peptide text is derived from it. Bridges are numbered along the chain shown (N, C = ends). [ ]: non-standard residue; d: D form. Pen = CC(C)(S)[C@H](N)C(=O)O; hSer = N[C@@H](CCO)C(=O)O; Orn = NCCC[C@H](N)C(=O)O; Dab = NCC[C@H](N)C(=O)O

With `CC(C)[C@H](NC(=O)[C@@H]1CSSC(C)(C)[C@H](NC(=O)[C@@H](N)CC(=O)O)C(=O)N[C@@H](Cc2ccccc2)C(=O)N[C@H](Cc2c[nH]c3ccccc23)C(=O)N[C@@H](CCCN)C(=O)N[C@@H](Cc2ccc(O)cc2)C(=O)N1)C(=O)O` (H-D[Pen]F[dW][Orn]YCV-OH; disulfide 2-7), the result in assay [1] and in assay [2] was inactive.
As to `CC(C)[C@H](NC(=O)[C@@H]1CSSC[C@H](NC(=O)[C@H](CC(=O)O)NC(=O)[C@@H]2CCCN2C(=O)[C@@H](NC(=O)[C@@H](N)CCO)[C@@H](C)O)C(=O)N[C@@H](Cc2ccccc2)C(=O)N[C@@H](Cc2c[nH]c3ccccc23)C(=O)N[C@@H](CCCCN)C(=O)N[C@@H](Cc2ccc(O)cc2)C(=O)N1)C(=O)O` (H-[hSer]TPDCFWKYCV-OH; disulfide 5-10), in assay [1], the outcome was inactive. Besides, the result in assay [3] was Active. In addition, in assay [4], the Emax was found to be 144.2 dyn/mg.
As for `CC(C)[C@H](NC(=O)[C@@H]1CSSC[C@H](NC(=O)[C@H](CC(=O)O)NC(=O)[C@@H]2CCCN2C(=O)[C@@H](NC(=O)[C@H](C)N)[C@@H](C)O)C(=O)N[C@@H](Cc2ccccc2)C(=O)N[C@@H](Cc2c[nH]c3ccccc23)C(=O)N[C@@H](CCCCN)C(=O)N[C@@H](Cc2ccc(O)cc2)C(=O)N1)C(=O)O` (H-ATPDCFWKYCV-OH; disulfide 5-10), in assay [5], the result was Active.
Usually EC50 stands for the midpoint of the concentration-response curve. Consider `CC(C)[C@H](NC(=O)[C@@H]1CSSC[C@H](NC(=O)[C@@H](N)CC(=O)O)C(=O)N[C@@H](Cc2ccccc2)C(=O)N[C@@H](Cc2c[nH]c3ccccc23)C(=O)N[C@@H](CCCCN)C(=O)N[C@@H](Cc2ccc(O)cc2)C(=O)N1)C(=O)O` (H-DCFWKYCV-OH; disulfide 2-7), for which the EC50 in assay [6] was 1.2 nM.
Regarding `CC(C)[C@H](NC(=O)[C@@H]1CSSC[C@H](NC(=O)[C@H](CC(=O)O)NC(=O)[C@@H]2CCCN2C(=O)[C@@H](NC(=O)[C@@H](N)CCN)[C@@H](C)O)C(=O)N[C@@H](Cc2ccccc2)C(=O)N[C@@H](Cc2c[nH]c3ccccc23)C(=O)N[C@@H](CCCCN)C(=O)N[C@@H](Cc2ccc(O)cc2)C(=O)N1)C(=O)O` (H-[Dab]TPDCFWKYCV-OH; disulfide 5-10), in assay [4], the Emax is reported as 97.78 dyn/mg.
The same measure, in the same setting: for `CC(C)[C@H](NC(=O)[C@@H]1CSSC[C@H](NC(=O)[C@H](CC(=O)O)NC(=O)[C@@H]2CCCN2C(=O)[C@@H](NC(=O)[C@@H](N)CCC(=O)O)[C@@H](C)O)C(=O)N[C@@H](Cc2ccccc2)C(=O)N[C@@H](Cc2c[nH]c3ccccc23)C(=O)N[C@@H](CCCCN)C(=O)N[C@@H](Cc2ccc(O)cc2)C(=O)N1)C(=O)O` [UROTENSIN-II] the value was 237.2 dyn/mg.
